{"source": "paper PMC7699860", "about": "(Molecules, 2020)", "tested_on": "Tel-23 (DNA telomeric G4) (DNA, G4) TAGGGTTAGGGTTAGGGTTAGGG", "assay": "UV melting at 290 nm", "conditions": "K+ (KCl 50 mM), NaCac 2.5 mM, pH 6.5, G4 0.472 µM"}
{"smiles": "CCN1[C]N(Cc2c3ccccc3cc3ccccc23)C=C1.CCN1[C]N(Cc2c3ccccc3cc3ccccc23)C=C1.[Ag+]", "values": [{"measurement": "ΔTm", "setting": "CG4/CAg = 1.4, derived from two Tm (60 and 60)", "value": 0, "unit": "°C"}]}
{"smiles": "CCN1[C]N(Cc2c3ccccc3cc3ccccc23)C=C1.CCN1[C]N(Cc2c3ccccc3cc3ccccc23)C=C1.[Au+]", "values": [{"measurement": "ΔTm", "setting": "CG4/CAu = 0.5, derived from two Tm (60 and 57)", "value": -3, "unit": "°C"}]}
